Each structure is given as a SMILES string.

The first experiment has as its system HT-29. The experiment is described as follows: Antiproliferative activity against human HT29 cells after 72 hrs by XTT assay. It counts as functional, cell-based. The settings on record: HT-29, 72 h. In general terms: Tetrazolium assays rely on reduction of a dye to a coloured formazan, in cell work by metabolically active cells.
The IC50 is the concentration needed to halve the response being measured. For `C=C(C)CCC[C@]1(C)C2=CCC[C@](C)(C[C@H](OC(C)=O)C3=CC(=O)OC3O)[C@H]2CC[C@H]1C` (stereo not given in full), 4.2 µM corresponded to half-maximal inhibition (IC50).

Turning to `COC/C=C(\C)CC[C@]1(C)C2=C(CC[C@H]1C)C1(C)CCC2[C@@](O)(C2=CC(=O)OC2O)C1` (stereo not given in full), the midpoint of inhibition, the IC50, lay at 18.7 µM.

On to `C=C(C)CC[C@]1(C)C2=CCC[C@](C)(C[C@@H](O)C3=CC(=O)OC3O)[C@H]2CC[C@H]1C` (stereo not given in full), for which the IC50 turned out to be 3.6 µM.

`C=C(C)CC[C@]1(C)C2=CCC[C@](C)(C[C@@H](O)c3ccoc3)[C@H]2CC[C@H]1C`: the IC50 is 30 µM.

Turning to `C=C(C)CCC[C@]1(C)C2=CCC[C@](C)(C[C@H](O)c3ccoc3)[C@H]2CC[C@H]1C`, the IC50 came to 63.1 µM.

In the case of `CC(C)=CCC[C@]1(C)C2=CCC[C@](C)(CC(=O)c3ccoc3)[C@H]2CC[C@H]1C`, the IC50 amounted to 82.3 µM.

`C=C(C)CCC[C@]1(C)C2=CCC[C@](C)(C[C@H](O)C3=CC(=O)OC3O)[C@H]2CC[C@H]1C` (stereo not given in full): the IC50 came to 3 µM.

`C=C(C)CCC[C@]1(C)C2=CCC[C@](C)(C[C@@H](O)C3=CC(=O)OC3O)[C@H]2CC[C@H]1C` (stereo not given in full) returned an IC50 of 2.3 µM. The IC50 values of the last two compounds are within 1.5-fold of each other.

With `C=C(C)CC[C@]1(C)C2=CCC[C@](C)(C[C@H](O)C3=CC(=O)OC3O)[C@H]2CC[C@H]1C` (stereo not given in full), the midpoint of inhibition, the IC50, lay at 3.2 µM.

Consider `C=C(C)CCC[C@]1(C)C2=C(CC[C@H]1C)C1(C)CCC2[C@@](O)(C2=CC(=O)OC2O)C1` (stereo not given in full), for which inhibition was half-maximal at 2.9 µM (IC50).

On to `C=C(C)CC[C@]1(C)C2=CCC[C@](C)(C[C@H](O)c3ccoc3)[C@H]2CC[C@H]1C`, for which half-maximal inhibition (IC50) required 30 µM.

On to `C=C(C)CCC[C@]1(C)C2=CCC[C@](C)(C[C@@H](O)c3ccoc3)[C@H]2CC[C@H]1C`, for which the IC50 came to 63.1 µM.

On to `C=C(C)CCC[C@]1(C)C2=CCC[C@](C)(CC(=O)c3ccoc3)[C@H]2CC[C@H]1C`, for which the IC50 was > 100 µM.

The compound `C=C(C)CC[C@]1(C)C2=CCC[C@](C)(C[C@@H](OC(C)=O)C3=CC(=O)OC3O)[C@H]2CC[C@H]1C` (stereo not given in full) had an IC50 of 4.8 µM.

`C=C(C)CCC[C@]1(C)C2=CCC[C@](C)(C[C@@H](OC(C)=O)C3=CC(=O)OC3O)[C@H]2CC[C@H]1C` (stereo not given in full): the midpoint of inhibition, the IC50, lay at 2.9 µM. Compared with the last compound, the IC50 is about 1.7-fold lower.

In the next experiment the test system is HL-60. The experiment is described as follows: Antiproliferative activity against human HL60 cells after 72 hrs by XTT assay. In kind it is functional, cell-based. The settings on record: HL-60, 72 h.
`C=C(C)CCC[C@]1(C)C2=CCC[C@](C)(C[C@H](OC(C)=O)C3=CC(=O)OC3O)[C@H]2CC[C@H]1C` (stereo not given in full) showed a half-maximal inhibitory concentration (IC50) of 3 µM.

`COC/C=C(\C)CC[C@]1(C)C2=C(CC[C@H]1C)C1(C)CCC2[C@@](O)(C2=CC(=O)OC2O)C1` (stereo not given in full) registered an IC50 of 18.7 µM.

The compound `C=C(C)CC[C@]1(C)C2=CCC[C@](C)(C[C@@H](O)C3=CC(=O)OC3O)[C@H]2CC[C@H]1C` (stereo not given in full) displayed an IC50 of 3.3 µM.

Compound `C=C(C)CC[C@]1(C)C2=CCC[C@](C)(C[C@@H](O)c3ccoc3)[C@H]2CC[C@H]1C` had an IC50 of 28.7 µM.

In the case of `C=C(C)CCC[C@]1(C)C2=CCC[C@](C)(C[C@H](O)c3ccoc3)[C@H]2CC[C@H]1C`, the IC50 is 31.2 µM.

As to `CC(C)=CCC[C@]1(C)C2=CCC[C@](C)(CC(=O)c3ccoc3)[C@H]2CC[C@H]1C`, the IC50 is 57.8 µM.

`C=C(C)CCC[C@]1(C)C2=CCC[C@](C)(C[C@H](O)C3=CC(=O)OC3O)[C@H]2CC[C@H]1C` (stereo not given in full) came in with an IC50 of 3 µM.

Compound `C=C(C)CCC[C@]1(C)C2=CCC[C@](C)(C[C@@H](O)C3=CC(=O)OC3O)[C@H]2CC[C@H]1C` (stereo not given in full) returned an IC50 of 3.2 µM.

Compound `C=C(C)CC[C@]1(C)C2=CCC[C@](C)(C[C@H](O)C3=CC(=O)OC3O)[C@H]2CC[C@H]1C` (stereo not given in full) displayed an IC50 of 3.2 µM. That is a single-digit micromolar value.

Compound `C=C(C)CCC[C@]1(C)C2=C(CC[C@H]1C)C1(C)CCC2[C@@](O)(C2=CC(=O)OC2O)C1` (stereo not given in full) yielded an IC50 of 0.3 µM. Compared with the last compound, the IC50 is about 11-fold lower.

In turn, `C=C(C)CC[C@]1(C)C2=CCC[C@](C)(C[C@H](O)c3ccoc3)[C@H]2CC[C@H]1C` registered an IC50 of 28.7 µM.

`C=C(C)CCC[C@]1(C)C2=CCC[C@](C)(C[C@@H](O)c3ccoc3)[C@H]2CC[C@H]1C` had an IC50 of 31.2 µM.

`C=C(C)CCC[C@]1(C)C2=CCC[C@](C)(CC(=O)c3ccoc3)[C@H]2CC[C@H]1C`: the IC50 is > 100 µM.

Take `C=C(C)CC[C@]1(C)C2=CCC[C@](C)(C[C@@H](OC(C)=O)C3=CC(=O)OC3O)[C@H]2CC[C@H]1C` (stereo not given in full): the IC50 is 3.3 µM.

With `C=C(C)CCC[C@]1(C)C2=CCC[C@](C)(C[C@@H](OC(C)=O)C3=CC(=O)OC3O)[C@H]2CC[C@H]1C` (stereo not given in full), 3.2 µM corresponded to half-maximal inhibition (IC50).

In the next experiment the test system is HeLa. The experiment in a line: Antiproliferative activity against human HeLa cells after 72 hrs by XTT assay. It counts as functional, cell-based.
Details: not given
`C=C(C)CCC[C@]1(C)C2=CCC[C@](C)(C[C@H](OC(C)=O)C3=CC(=O)OC3O)[C@H]2CC[C@H]1C` (stereo not given in full) yielded an IC50 of 2.6 µM.

With `COC/C=C(\C)CC[C@]1(C)C2=C(CC[C@H]1C)C1(C)CCC2[C@@](O)(C2=CC(=O)OC2O)C1` (stereo not given in full), the IC50 turned out to be 26.5 µM.

In the case of `C=C(C)CC[C@]1(C)C2=CCC[C@](C)(C[C@@H](O)C3=CC(=O)OC3O)[C@H]2CC[C@H]1C` (stereo not given in full), the IC50 worked out at 5.4 µM.

`C=C(C)CC[C@]1(C)C2=CCC[C@](C)(C[C@@H](O)c3ccoc3)[C@H]2CC[C@H]1C`: 30.2 µM corresponded to half-maximal inhibition (IC50).

`C=C(C)CCC[C@]1(C)C2=CCC[C@](C)(C[C@H](O)c3ccoc3)[C@H]2CC[C@H]1C`: the IC50 was found to be 59.4 µM.

In turn, `CC(C)=CCC[C@]1(C)C2=CCC[C@](C)(CC(=O)c3ccoc3)[C@H]2CC[C@H]1C` showed an IC50 of 54.5 µM.

Regarding `C=C(C)CCC[C@]1(C)C2=CCC[C@](C)(C[C@H](O)C3=CC(=O)OC3O)[C@H]2CC[C@H]1C` (stereo not given in full), 3.8 µM corresponded to half-maximal inhibition (IC50).

Consider `C=C(C)CCC[C@]1(C)C2=CCC[C@](C)(C[C@@H](O)C3=CC(=O)OC3O)[C@H]2CC[C@H]1C` (stereo not given in full), for which it took 2.6 µM to reach half-maximal inhibition (IC50).

Consider `C=C(C)CC[C@]1(C)C2=CCC[C@](C)(C[C@H](O)C3=CC(=O)OC3O)[C@H]2CC[C@H]1C` (stereo not given in full), for which 4.8 µM corresponded to half-maximal inhibition (IC50).

In turn, `C=C(C)CCC[C@]1(C)C2=C(CC[C@H]1C)C1(C)CCC2[C@@](O)(C2=CC(=O)OC2O)C1` (stereo not given in full) had an IC50 of 3.1 µM.

For the compound `C=C(C)CC[C@]1(C)C2=CCC[C@](C)(C[C@H](O)c3ccoc3)[C@H]2CC[C@H]1C`, it took 30.2 µM to reach half-maximal inhibition (IC50).

Compound `C=C(C)CCC[C@]1(C)C2=CCC[C@](C)(C[C@@H](O)c3ccoc3)[C@H]2CC[C@H]1C` returned an IC50 of 59.4 µM.

Regarding `C=C(C)CCC[C@]1(C)C2=CCC[C@](C)(CC(=O)c3ccoc3)[C@H]2CC[C@H]1C`, the IC50 was > 100 µM.

`C=C(C)CC[C@]1(C)C2=CCC[C@](C)(C[C@@H](OC(C)=O)C3=CC(=O)OC3O)[C@H]2CC[C@H]1C` (stereo not given in full) returned an IC50 of 6.7 µM. In other words, the single-digit micromolar range.

On to `C=C(C)CCC[C@]1(C)C2=CCC[C@](C)(C[C@@H](OC(C)=O)C3=CC(=O)OC3O)[C@H]2CC[C@H]1C` (stereo not given in full), for which the IC50 came to 3.5 µM.

A further experiment relates to A549. The experiment is described as follows: Antiproliferative activity against human A549 cells after 72 hrs by XTT assay. In kind it is functional, cell-based. The settings on record: A549, 72 h.
`C=C(C)CCC[C@]1(C)C2=CCC[C@](C)(C[C@H](OC(C)=O)C3=CC(=O)OC3O)[C@H]2CC[C@H]1C` (stereo not given in full) came in with an IC50 of 4.5 µM.

`COC/C=C(\C)CC[C@]1(C)C2=C(CC[C@H]1C)C1(C)CCC2[C@@](O)(C2=CC(=O)OC2O)C1` (stereo not given in full) returned an IC50 of 28.2 µM.

`C=C(C)CC[C@]1(C)C2=CCC[C@](C)(C[C@@H](O)C3=CC(=O)OC3O)[C@H]2CC[C@H]1C` (stereo not given in full) gave an IC50 of 4.4 µM.

Compound `C=C(C)CC[C@]1(C)C2=CCC[C@](C)(C[C@@H](O)c3ccoc3)[C@H]2CC[C@H]1C` returned an IC50 of 34 µM.

On to `C=C(C)CCC[C@]1(C)C2=CCC[C@](C)(C[C@H](O)c3ccoc3)[C@H]2CC[C@H]1C`, for which it took 66 µM to reach half-maximal inhibition (IC50).

Take `CC(C)=CCC[C@]1(C)C2=CCC[C@](C)(CC(=O)c3ccoc3)[C@H]2CC[C@H]1C`: the IC50 came to 91 µM.

`C=C(C)CCC[C@]1(C)C2=CCC[C@](C)(C[C@H](O)C3=CC(=O)OC3O)[C@H]2CC[C@H]1C` (stereo not given in full) showed an IC50 of 3.2 µM. This IC50 lies about 28-fold lower than the previous one.

Compound `C=C(C)CCC[C@]1(C)C2=CCC[C@](C)(C[C@@H](O)C3=CC(=O)OC3O)[C@H]2CC[C@H]1C` (stereo not given in full) showed an IC50 of 3.8 µM. This IC50 and that of the compound before are within 1.5-fold of each other.

For `C=C(C)CC[C@]1(C)C2=CCC[C@](C)(C[C@H](O)C3=CC(=O)OC3O)[C@H]2CC[C@H]1C` (stereo not given in full), the IC50 is 4.5 µM.

`C=C(C)CCC[C@]1(C)C2=C(CC[C@H]1C)C1(C)CCC2[C@@](O)(C2=CC(=O)OC2O)C1` (stereo not given in full) returned an IC50 of 3 µM. Against the preceding compound, the IC50 is about 1.5-fold lower.

In turn, `C=C(C)CC[C@]1(C)C2=CCC[C@](C)(C[C@H](O)c3ccoc3)[C@H]2CC[C@H]1C` gave an IC50 of 34 µM.

In the case of `C=C(C)CCC[C@]1(C)C2=CCC[C@](C)(C[C@@H](O)c3ccoc3)[C@H]2CC[C@H]1C`, the IC50 came to 66 µM.

On to `C=C(C)CCC[C@]1(C)C2=CCC[C@](C)(CC(=O)c3ccoc3)[C@H]2CC[C@H]1C`, for which the IC50 was > 100 µM.

On to `C=C(C)CC[C@]1(C)C2=CCC[C@](C)(C[C@@H](OC(C)=O)C3=CC(=O)OC3O)[C@H]2CC[C@H]1C` (stereo not given in full), for which it took 11.1 µM to reach half-maximal inhibition (IC50).

For the compound `C=C(C)CCC[C@]1(C)C2=CCC[C@](C)(C[C@@H](OC(C)=O)C3=CC(=O)OC3O)[C@H]2CC[C@H]1C` (stereo not given in full), half-maximal inhibition (IC50) required 3.2 µM.
